Test results published in US20240100127A1, “TIRZEPATIDE THERAPEUTIC METHODS” (Eli Lilly and Company, priority 2021, published 2024).

Tested on: patients with T2DM with HbA1c between ≥7.0% and ≤10.5% on metformin or metformin plus an SGLT-2 inhibitor
Experiment: Example 1 clinical trial using tirzepatide, 52 weeks, versus insulin degludec
Type: in vivo, human
Conditions: standard titration protocol
Excerpt: The enrollment criteria, set forth in Table 1 below, are designed to include participants who are similar to patients seen within a typical diabetes practice, and include some patient with type 2 diabetes that is refractory to oral treatment. Geriatric patients are included. Mean duration with type 2 diabetes about 8 years. Study continues for 52 weeks.
The study is designed to consist of a screening visit followed by a single-blind 3-week placebo run-in period. Afterwards, patients are randomized to tirzepatide 5, 10, or 15 mg (dosed using an escalation dose protocol) or insulin degludec (standard titration protocol) and followed at approximately monthly intervals. Patients receiving insulin degludec follow standard insulin degludec titration protocol during the study. Study protocol includes blood pressure measurement at each visit and serum lipid profile at study initiation and at 52 weeks using standard clinical methods. Blood Pressure measures using the methods of Example 1 are represented in FIGS. 3 and 4. HDL-C levels using the methods of Example 1 are represented in FIG. 1.

insulin degludec
Percent patients achieving ≤5.7% HbA1c by 52 weeks: insulin degludec: 5.4%
